Results as given in patent publication US20140081017A1, “Histone Deacetylase Inhibitors for Enhancing Activity of Antifungal Agents” (METHYLGENE INC., priority 2012, published 2014).
Converted amounts (≈) assume the structure as drawn. Where two headings read alike, the source gives them in different places.

Legend:
C. glabrata = test: Checkerboard FIC assay in combination with fluconazole (MIC alone and in combination, FICI); format: cell-based, Candida glabrata; conditions: for FICI of combination resulting in fluconazole MIC of: 2 ug/mL / FICI of combination resulting in fluconazole MIC of: 4 ug/mL / FICI of combination resulting in fluconazole MIC of: 8 ug/mL: FICI calculated using a fluconazole MIC of 16 μg/mL; for FICI of combination resulting in fluconazole MIC of: 2 ug/mL (value in parenthesis) / FICI of combination resulting in fluconazole MIC of: 4 ug/mL (value in parenthesis) / FICI of combination resulting in fluconazole MIC of: 8 ug/mL (value in parenthesis): FICI using a fluconazole MIC of 128 μg/mL; for MIC: Nakaseomyces glabratus; for Multiple of compound MIC to synergize fluconazole MIC to 2 ug/mL / Multiple of compound MIC to synergize fluconazole MIC to 4 ug/mL / Multiple of compound MIC to synergize fluconazole MIC to 8 ug/mL: concentration in combination as multiple of the compound's MIC alone; for Multiple of compound MIC to synergize fluconazole MIC to 2 ug/mL: fluconazole MIC 2 ug/mL; for Multiple of compound MIC to synergize fluconazole MIC to 4 ug/mL: fluconazole MIC 4 ug/mL; for Multiple of compound MIC to synergize fluconazole MIC to 8 ug/mL: fluconazole MIC 8 ug/mL; for Concentration of Methylgene compound to synergize fluconazole MIC to 2 ug/mL / Concentration of Methylgene compound to synergize fluconazole MIC to 4 ug/mL / Concentration of Methylgene compound to synergize fluconazole MIC to 8 ug/mL: in combination with fluconazole; for Concentration of Methylgene compound to synergize fluconazole MIC to 2 ug/mL: fluconazole MIC lowered to 2 ug/mL; for Concentration of Methylgene compound to synergize fluconazole MIC to 4 ug/mL: fluconazole MIC lowered to 4 ug/mL; for Concentration of Methylgene compound to synergize fluconazole MIC to 8 ug/mL: fluconazole MIC lowered to 8 ug/mL
Method: The ability of the compounds to synergize with azoles against C. glabrata was evaluated by the checkerboard assay, a common laboratory method used to evaluate synergy, antagonism, and indifference using fractional inhibitory concentrations (FICs) and FIC indices (FICI).
The test compounds were supplied as a powder and dissolved in dimethylsulfoxide (DMSO) on the day of assay. Stock solutions were prepared at 640 ug/mL. Fluconazole was dissolved in deionized water to a stock concentration of 320 ug/mL. All test articles were in solution under these conditions.
(§1) The test organisms and reference isolates were streaked for isolation on Sabouraud agar medium (yeasts) or potato dextrose agar (fungi). Colonies were picked by swab from the medium and resuspended in the appropriate broth containing cryoprotectant. The suspensions were aliquoted into cryogenic vials and maintained at −80° C.
(§2) Prior to testing, the yeast isolates were streaked from the frozen vials onto Sabouraud dextrose agar. The plates were incubated overnight at 35° C. The fungal isolate was grown on potato dextrose agar slants and was incubated for 7-10 days at room temperature.
(§3) Both yeast and fungal isolates were tested in RPMI medium buffered with 0.165 M MOPS (3-(N-morpholino)propanesulfonic acid). The pH of the medium was adjusted to 7.0 with 1 N NaOH. The medium was sterile filtered using a 0.2 um PES (polyethersulfone) filter and stored at 4° C. until used.
FIC values were determined using a broth microdilution method (CLSI; 1, 3). To prepare the test plates, automated liquid handlers (Multidrop 384, Labsystems, Helsinki, Finland; Biomek 2000 and Biomek FX, Beckman Coulter, Fullerton Calif.) were used to conduct serial dilutions and liquid transfers.
The wells of standard 96-well microdilution plates (Costar 3795) were filled with 150 uL of DMSO in columns 2-12. Three hundred microliters of each test compound was added to each well in Column 1 of the plates. The Biomek 2000 was used to make eleven 2-fold serial dilutions in each of these “test compound mother” plates. The wells of the “fluconazole mother plates” were filled with 150 uL of sterile water in rows B-H. Row A of these plates was filled with 300 uL of the fluconazole stock solution. Serial 2-fold dilutions were then prepared from top to bottom by hand, using a multichannel pipette in rows B-G. The “daughter plates” were loaded with 180 uL of RPMI using the Multidrop 384. The Biomek FX was used to transfer 5 uL of compound solution from each well of a fluconazole mother plate to the corresponding well in all of the daughter plates in a single step. Then the Biomek FX was used to transfer 5 uL of compound solution from each well of a test compound mother plate to the corresponding well of the corresponding test compound daughter plate (already containing fluconazole at the appropriate concentrations) in a single step. Row H and Column 12 each contained serial dilutions of the test agent and fluconazole alone, respectively, for determination of the MIC.
Standardized inoculum of each organism was prepared per CLSI methods (CLSI; 1, 3). For yeast isolates, colonies were picked from the primary plate and a suspension was prepared in 0.85% saline to equal a 0.5 McFarland turbidity standard. For the fungal isolate, 1 mL of 0.85% saline was dispensed onto a potato dextrose agar slant onto which the isolate had been inoculated 7-10 days previously. Using a swab, a suspension of the fungus was made. After a short time to allow the heavy particles to settle out, a small quantity of the supernatant was dispensed into 0.85% saline and the suspension was adjusted to equal a 0.5 McFarland turbidity standard. Both yeast and fungal isolates were diluted 1:100 in RPMI and then transferred to compartments of sterile reservoirs divided by length (Beckman Coulter). The Biomek 2000 was used to inoculate the plates. […]

Candida albicans = test: Minimal Inhibitory Concentration (MIC) assay, broth microdilution per CLSI; format: cell-based; conditions: Candida albicans, read-out: Minimum Inhibitory Concentrations against Yeast Isolates, Candida albicans;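 note: two read times 24 hr and 48 hr of incubation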
Method: (§4) The in vitro activities of the inventive compounds (compound(s) herein) against fungi and/or yeasts were determined with isolates Candida albicans, Candida glabrata and Candida parapsilosis. The comparator compounds included fluconazole, caspofungin and amphotericin B.
(§5) The compounds were supplied as a powder, and were dissolved in dimethylsulfoxide (DMSO) the day of assay. Stock solutions were prepared at 10 mg/mL and diluted to a starting stock concentration of 2.56 mg/mL. Amphotericin B was dissolved in DMSO to a stock concentration of 2.56 mg/mL. Fluconazole was dissolved in deionized water to a stock concentration of 2.56 mg/mL. Caspofungin was received as a stock solution of 3.2 mg/mL in DMSO and was diluted to a starting stock concentration of 2.56 mg/mL.
as §1, §2, §3
(§6) The MIC assay method followed the procedure described by the Clinical and Laboratory Standards Institute (CLSI; 1, 2, 3) and employed automated liquid handlers to conduct serial dilutions and liquid transfers. Automated liquid handlers included the Multidrop 384 (Labsystems, Helsinki, Finland), Biomek 2000 and Biomek FX (Beckman Coulter, Fullerton Calif.). The wells in columns 2-12 in standard 96-well microdilution plates (Costar 3795) were filled with 150 ul of 100% DMSO. These would become the ‘mother plates’ from which ‘daughter’ or test plates would be prepared. The compounds (300 uL at 40× the desired top concentration in the test plates) were dispensed into the appropriate well in Column 1 of the mother plates. The Biomek 2000 was used to make serial 1:1 dilutions through Column 11 in the “mother plate”. The wells of Column 12 contained no compounds and were the organism growth control wells.
(§7) The daughter plates were loaded with 185 uL per well of RPMI described above using the Multidrop 384. The daughter plates were prepared using the Biomek FX which transferred 5 μL of the compound solution from each well of a mother plate to the corresponding well of the daughter plate in a single step.
(§8) Standardized inoculum of each organism was prepared per CLSI methods. For yeast isolates, colonies were picked from the streak plate and a suspension was prepared in 0.85% saline. For the fungal isolate, 1 mL of 0.85% saline was dispensed onto the potato dextrose agar slant that had been inoculated 7-10 days previously. Using a swab, a suspension of the fungus was made. After a short time to allow the heavy particles to settle out, a small quantity of the supernatant was dispensed into 0.85% saline and the suspension adjusted to equal a 0.5 McFarland turbidity standard. Both yeast and fungal isolates were diluted 1:100 in RPMI and then transferred to compartments of sterile reservoirs divided by length (Beckman Coulter). The Biomek 2000 was used to inoculate the plates. Daughter plates were placed on the Biomek 2000 work surface reversed so that inoculation took place from low to high compound concentration. The Biomek 2000 delivered 10 μL of standardized inoculum into each well. Thus, the wells of the daughter plates ultimately contained 185 uL of RPMI, 5 uL of the compound solution, and 10 uL of inoculum. […]

Candida glabrata = test: as above; format: cell-based; conditions: Nakaseomyces glabratus, read-out: Minimum Inhibitory Concentrations against Yeast Isolates, Candida glabrata;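 note: two read times 24 hr and 48 hr of incubation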
Method: as §4, §5, §1, §2, §3, §6, §7, §8

Candida parapsilosis = test: as above; format: cell-based; conditions: Lodderomyces parapsilosis, read-out: Minimum Inhibitory Concentrations against Yeast Isolates, Candida parapsilosis;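 note: two read times 24 hr and 48 hr of incubation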
Method: as §4, §5, §1, §2, §3, §6, §7, §8

[1] = MIC of the example compound alone against C. glabrata in the checkerboard assay, approximately 48 hr, read-out: Methylgene MIC
[2] = test compound alone, C. glabrata, approx. 48 hr at 35° C., read-out: Compound MIC
[3] = 24 hr reading (first value of cell 24 hr/48 hr)
[4] = 48 hr reading (second value of cell 24 hr/48 hr)

Row | Structure (SMILES) | FICI of combination resulting in fluconazole MIC of: 2 ug/mL (C. glabrata; C. glabrata) | FICI of combination resulting in fluconazole MIC of: 4 ug/mL (C. glabrata; C. glabrata) | FICI of combination resulting in fluconazole MIC of: 8 ug/mL (C. glabrata; C. glabrata) | FICI of combination resulting in fluconazole MIC of: 2 ug/mL (value in parenthesis) (C. glabrata; C. glabrata) | FICI of combination resulting in fluconazole MIC of: 4 ug/mL (value in parenthesis) (C. glabrata; C. glabrata) | FICI of combination resulting in fluconazole MIC of: 8 ug/mL (value in parenthesis) (C. glabrata; C. glabrata) | MIC (C. glabrata; [1]) | MIC (C. glabrata; [2]) | Multiple of compound MIC to synergize fluconazole MIC to 2 ug/mL (C. glabrata) | Multiple of compound MIC to synergize fluconazole MIC to 4 ug/mL (C. glabrata) | Multiple of compound MIC to synergize fluconazole MIC to 8 ug/mL (C. glabrata) | Concentration of Methylgene compound to synergize fluconazole MIC to 2 ug/mL (C. glabrata; C. glabrata) | Concentration of Methylgene compound to synergize fluconazole MIC to 4 ug/mL (C. glabrata; C. glabrata) | Concentration of Methylgene compound to synergize fluconazole MIC to 8 ug/mL (C. glabrata; C. glabrata) | MIC (Candida albicans; [3]) | MIC (Candida albicans; [4]) | MIC (Candida glabrata; [3]) | MIC (Candida glabrata; [4]) | MIC (Candida parapsilosis; [3]) | MIC (Candida parapsilosis; [4])
1 | O=C(Cc1ccc(CCCC(F)(F)c2ccccc2)cc1)NO [Example 29, 2-(4-(4,4-difluoro-4-phenylbutyl)phenyl)-N-hydroxyacetamide] | 0.563 | 0.625 | 0.500 | 0.516 | 0.531 | 0.313 | 1 µg/mL | 1 µg/mL | (½x) | (½x) | (¼x) | 0.5 µg/mL | 0.5 µg/mL | 0.25 µg/mL | 1 µg/mL (≈ 3.13 µM) | 2 µg/mL (≈ 6.26 µM) | 0.5 µg/mL (≈ 1.57 µM) | 1 µg/mL (≈ 3.13 µM) | 1 µg/mL (≈ 3.13 µM) | 2 µg/mL (≈ 6.26 µM)
2 | CC(C(=O)NO)c1ccc(CCCCc2ccccc2)cc1 (stereo not drawn) [Example 55, N-hydroxy-2-(4-(4-phenylbutyl)phenyl)propanamide] | 0.303 | 0.365 | 0.370 | 0.256 | 0.271 | 0.183 | 0.5 µg/mL | 0.5 µg/mL | (¼x) | (¼x) | (⅛x) | 0.12 µg/mL | 0.12 µg/mL | 0.06 µg/mL | 2 µg/mL (≈ 6.72 µM) | 4 µg/mL (≈ 13.4 µM) | 0.25 µg/mL (≈ 0.841 µM) | 0.5 µg/mL (≈ 1.68 µM) | 0.5 µg/mL (≈ 1.68 µM) | 1 µg/mL (≈ 3.36 µM)
3 | O=C(Cc1ccc(CCC(F)Cc2ccccc2)cc1)NO (stereo not drawn) [Example 60, 2-(4-(3-fluoro-4-phenylbutyl)phenyl)-N-hydroxyacetamide] | 0.563 | 0.625 | 0.500 | 0.516 | 0.531 | 0.313 | 2 µg/mL | 2 µg/mL | (½x) | (½x) | (¼x) | 1 µg/mL | 1 µg/mL | 0.5 µg/mL | 4 µg/mL (≈ 13.3 µM) | 4 µg/mL (≈ 13.3 µM) | 2 µg/mL (≈ 6.64 µM) | 2 µg/mL (≈ 6.64 µM) | 4 µg/mL (≈ 13.3 µM) | 8 µg/mL (≈ 26.5 µM)
